Counter-ions that a name gives are not always drawn.
Test: Surface free energy (work of cohesion) of particles
Type: physicochemical
Excerpt: This property renders the primary particles very cohesive and prone to aggregation as described by B. Janczuk and T. Bialopiotrowicz, “Surface Free-Energy Components of Liquids and Low Energy Solids and Contact Angles,” in J. Colloid Interf. Sci. 127 (1989), p. 189-204; W. R. Good, “A Comparison of Contact Angle Interpretations,” in J. Colloid Interf. Sci. 44 (1973), p. 63; M. D. Lechner (Ed.), Landolt Börnstein, New Series, Vol. IV/16, “Surface Tension of Pure Liquids and Binary Liquid Mixture,” Springer Verlag, 1998; and J. J. Jasper, “The Surface Tension of Pure Liquid Compounds,” in J. Phys. Chem. Ref. Data, Vol. 1, No. 4, 1972, p. 859. […] Due to these limitations, it was not possible to develop a neratinib maleate formulation comprising a capsule or tablet of higher strength employing a direct compression or roller compaction processes successfully. A formulation using a conventional wet granulation method led to chemical degradation and stability issues.

Structure (SMILES): CCOc1cc2ncc(C#N)c(Nc3ccc(OCc4ccccn4)c(Cl)c3)c2cc1NC(=O)/C=C/CN(C)C [Neratinib maleate, (E)-N-(4-(3-chloro-4-(pyridin-2-ylmethoxy)phenylamino)-3-cyano-7-ethoxyquinolin-6-yl)-4-(dimethylamino)but-2-enamide]
- work of cohesion (surface free energy): 45.62 mN/m

Source: patent US8790708B2, “Coated tablet formulations and uses thereof” (Wyeth LLC, priority 2009, dated 2014)
